According to patent US20190040025A1, “INDOLEAMINE 2,3-DIOXYGENASE INHIBITOR, PREPARATION METHOD THEREFOR, AND APPLICATION” (Jiangsu Hansoh Pharmaceutical Group Co., Ltd., priority 2016, published 2019):

Experiments:
[1] = molecular target: T1, Human indoleamine 2,3-dioxygenase (IDO) (Homo sapiens, UniProt P14902); assay: Enzymatic test for IDO activity inhibition; assay type: biochemical; settings: 40 nM IDO enzyme, 0.2 mM L-tryptophan, 60 minutes at 30° C.
T1 construct: purchased BPS Bioscience Inc
T1 sequence (P14902 whole entry): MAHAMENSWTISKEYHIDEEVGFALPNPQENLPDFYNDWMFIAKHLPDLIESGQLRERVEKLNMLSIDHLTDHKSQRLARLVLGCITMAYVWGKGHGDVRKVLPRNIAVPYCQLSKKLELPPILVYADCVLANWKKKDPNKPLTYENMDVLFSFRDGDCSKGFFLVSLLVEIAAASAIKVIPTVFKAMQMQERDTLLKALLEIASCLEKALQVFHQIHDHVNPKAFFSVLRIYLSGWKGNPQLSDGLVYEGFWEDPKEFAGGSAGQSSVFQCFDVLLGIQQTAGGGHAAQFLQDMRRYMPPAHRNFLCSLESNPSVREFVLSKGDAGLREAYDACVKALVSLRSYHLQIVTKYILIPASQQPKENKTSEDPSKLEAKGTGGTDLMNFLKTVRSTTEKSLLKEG
Method: Human indoleamine 2,3-dioxygenase (IDO) was purchased from BPS Bioscience Inc. The enzymatic reaction of idoleamine 2,3-dioxygenase (IDO) was performed in a 96-well plate with a reaction volume of 20 μL. The reaction conditions were: 40 nM IDO enzyme, 0.2 mM L-tryptophan, 50 mM KPB (pH 6.5) buffer, 20 mM sodium L-L-ascorbate, 10 μM methylene blue, 0.2 mg/mL catalase, different concentrations of compounds containing <1% dimethyl sulfoxide. After reacting for 60 minutes at 30° C., 5 μL of 30% (w/v) trichloroacetic acid (in 50 mM KPB buffer) weres added to each well. The plate was incubated for 30 minutes at 50° C. to hydrolyze N-formyl-kynurenine to kynurenine. 25 μL of 2% (w/v) p-(dimethylamino)benzaldehyde (p-DMBA)/glacial acetic acid solution were added to each well. The absorbance at 490 nm was read on a BioTek Synergy H1 microplate reader […].
The stock solution of the test compound was prepared to 10 mM with dimethyl sulfoxide, diluted with dimethyl sulfoxide to the highest concentration of the test during the experiment, then diluted in 1:3 gradient, and generally diluted to 8 to 10 concentration points. Duplicate wells were set for each concentration point, and one reference compound was included in each experiment. The original data of the absorbance at 490 nm read on a microplate reader were analyzed. The inhibition of IDO enzyme activity was calculated at different concentrations of the test compound. The half-inhibitory concentration IC50 value of the compound was obtained by non-linear fitting analysis of inhibition percentage data by GraphPad Prism software.

[2] = molecular target: T2, indoleamine 2,3-dioxygenase (IDO) in HeLa cells (Homo sapiens, UniProt P14902); assay: Cell model test for IDO activity inhibition (interferon γ induced HeLa cells); assay type: cell-based; settings: interferon γ 50 ng/mL, 24 hours, read-out: Cytological Test IC50
T2 construct: Interferon γ induced the expression of IDO in HeLa cells; host or cells: HeLa cells induced with interferon γ
T2 sequence (P14902 whole entry): as above
Method: Interferon γ induced the expression of IDO in HeLa cells. This model was used to test the inhibitory activity of compounds on indoleamine 2,3-dioxygenase (IDO). The culture medium of HeLa cells (ATCC) was phenol red-free RPMI-1640 containing 100 μM L-tryptophan. The stock solution of the test compound was prepared to 10 mM with dimethyl sulfoxide, and diluted with dimethyl sulfoxide to the highest concentration of the test during the experiment, then diluted in three-fold gradient, and generally diluted to 8 to 10 concentration points. Duplicate wells were set for each concentration point. The final concentration of DMSO was 0.5%, and internal reference compound was included in each experiment.
The procedure of the experiment was as follows: 20,000 HeLa cells (ATCC) per well were added on a 96-well culture plate and incubated overnight. After 24 hours, interferon γ (final concentration of 50 ng/mL) and different concentrations of the test compound and the internal reference compound were added to the incubated cells. After 24 hours, 140 μL of the supernatant/well was transferred to a new 96-well plate, and 10 μL of 6.1 N trichloroacetic acid was added to each well. The plate was incubated for 30 minutes at 50° C. to hydrolyze N-formyl-kynurenine to kynurenine. The reaction mixture was centrifuged at 2500 rpm for 10 minutes to remove the precipitate, and the supernatant (100 μL) was transferred to another new 96-well plate. 100 μL of 2% (W/V) p-(dimethylamino)benzaldehyde (p-DMBA)/glacial acetic acid solution was added to each well. The absorbance at 490 nm was read on a BioTek Synergy H1 microplate reader […].
The original data of the absorbance at 490 nm read on a microplate reader were analyzed. The inhibition of IDO enzyme activity was calculated at different concentrations of the test compound. The half-inhibitory concentration IC50 value of the compound was obtained by non-linear fitting analysis of inhibition percentage data by GraphPad Prism software.

[3] = Pharmacokinetic (PK) analysis of rat plasma; assay type: in vivo; settings: Sprague-Dawley, po, 20 mg/kg, SD rats, single gavage, 20 mg/10 mL/kg
Method: The pharmacokinetics test of the test compound was performed with Sprague Dawley (SD) rats (Shanghai Slac Laboratory Animal Co., LTD).
Mode of administration: Single gavage.
U Dosage: 20 mg/10 mL/kg.
Formulation prescription: 3% dimethylacetamide and 20% hydroxypropyl-3-cyclodextrin.
Sampling points: before administration and 15 minutes, 0.5, 1, 2, 4, 6, 8 and 24 hours after administration.
Plasma sampling and sample processing: • 1) 0.2 ml of intravenous blood was collected and placed in an EDTA-2K tube. The blood was centrifuged at 4° C. for 5 minutes at 6,000 rpm to separate the plasma, which was stored at −80° C. • 2) 160 μL of acetonitrile were added to 40 μL of plasma sample, standard, and internal reference. The mixture was shaken vertically for 3 minutes, and centrifuged at 4000 rpm for 10 minutes. 100 μL of the supernatant were taken, and then added with 100 μL of deionized water and mixed well. 100 μL of the resulting solution was taken for LC/MS/MS analysis. The instrument for plasma LC/MS/MS analysis was AB Sciex API 4000.
Liquid Chromatography Analysis: • Liquid chromatography conditions: Shimadzu LC-20AD pump • Chromatographic column: phenomenex Gemiu 5 μm C18 50×4.6 mm • Mobile phase: solution A was 0.1% formic acid solution, and solution B was acetonitrile • Flow rate: 0.8 mL/min • Elution time: 0-3.01 minutes and the eluent was as follows:
• Mass spectrometry analysis: setup conditions of mass spectrometer: positive ion electrospray ionization (ESI) mode. • Experimental results: the main parameters of pharmacokinetics were calculated by WinNonlin 6.1 and the experimental results are shown in the following table: […]

[4] = system: mouse rectal cancer cell line Colon26; assay: Anti-tumor effect in Colon26 tumor-bearing mouse model; assay type: in vivo, mouse (Balb/c); settings: Colon26 tumor-bearing mice, 10 mg/kg, D12
Description: The present invention further used the Colon26 tumor-bearing mouse model to test the anti-tumor effect of the example compounds. The Colon26 tumor-bearing mouse model was the mouse rectal cancer cell line Colon26 purchased from Guangzhou Ginio Biological Technology Co., Ltd., and the culture medium used was RPMI1640 containing 10% fetal bovine serum. The mouse strain used for tumor-bearing was Balb/c purchased from Sino-British SIPPR/BK Lab Animal Co., Ltd. At the time of implanting, the Colon26 cells in logarithmic growth phase were collected and mixed to 10 million cells/ml. Each mouse was implanted subcutaneously with 100 μl of one million cells. When the tumor grew to about 100 cubic millimeters, animals were randomly divided into groups with 8 animals per group. Drug administration was started (D0).
Mode of administration: intragastric administration, twice a day.
Formulation prescription: 3% dimethylacetamide and 20% hydroxypropyl-β-cyclodextrin. • Administration period and tumor measurement: The administration period was 13 days. The tumor volume was measured, the mice were weighed, and the data were recorded, 3 times per week. The calculation formula of tumor volume (V) is: V=½a×b2 where a and b represent length and width, respectively. The calculation formula of T/C is: T/C (%)=100×ΔT/ΔC. Tumor inhibition rate (%)=1−T/C (%). • Experimental results: The antitumor effect of the compound of Example 15 in Colon26 tumor-bearing mouse model is shown in the following table.
Under the same experimental conditions, the dosage was adjusted. The anti-tumor effect of Example 15 and its optical isomers 18-(1) and 18-(2) in Colon26 tumor-bearing mouse model is shown in the following table: […]

Molecule CCNC(=O)C(=O)NCCNc1nonc1/C(=N/O)Nc1ccc(F)c(Br)c1 [Example 3, (Z)—N^1-(2-((4-(N-(3-bromo-4-fluorophenyl)-N′-hydroxycarbamimidoyl)-1,2,5-oxadiazol-3-yl)amino)ethyl)-N^2-ethyloxalamide] has an IC50 [1] of 56 nM and an IC50 [2] of 20 nM.

Work on O=C(NCCNc1nonc1/C(=N/O)Nc1ccc(F)c(Br)c1)C(=O)NC1CC1 [Example 7, (Z)—N^1-(2-((4-(N-(3-bromo-4-fluorophenyl)-N′-hydroxycarbamimidoyl)-1,2,5-oxadiazol-3-yl)amino)ethyl)-N^2-cyclopropyloxalamide] yielded an IC50 [1] of 53 nM and an IC50 [2] of 53 nM.

In the case of CS(=O)(=O)N=S(C)(=O)CCNc1nonc1/C(=N/O)Nc1ccc(F)c(Br)c1 (centres unmarked) [Example 14, (Z)—N-(3-bromo-4-fluorophenyl)-N′-hydroxy-4-((2-(S-methyl-N-(methylsulfonyl)sulfonimidoyl)ethyl)amino)-1,2,5-oxadiazole-3-carboximidamide], the IC50 [1] is reported as 38 nM, the IC50 [2] is reported as 12 nM and the AUC(0-inf) [3] is reported as 7540 ng·h/mL. It also gave a Cmax [3] of 1050 ng/mL, a Tmax [3] of 30 min and a half-life [3] of 330 min.

In the case of CNC(=O)C(=O)NCCNc1nonc1/C(=N/O)Nc1ccc(F)c(Br)c1 [Example 2, (Z)—N^1-(2-((4-(N-(3-bromo-4-fluorophenyl)-N′-hydroxycarbamimidoyl)-1,2,5-oxadiazol-3-yl)amino)ethyl)-N^2-methyloxalamide], the IC50 [1] is reported as 71 nM and the IC50 [2] is reported as 18 nM.

For NC(=O)C(=O)NCCNc1nonc1/C(=N/O)Nc1ccc(F)c(Br)c1 [Example 1, (Z)—N^1-(2-((4-(N-(3-bromo-4-fluorophenyl)-N′-hydroxycarbamimidoyl)-1,2,5-oxadiazol-3-yl)amino)ethyl)oxalamide], the IC50 [1] was 70 nM, the IC50 [2] was 15 nM and the AUC(0-inf) [3] was 8620 ng·h/mL. The Cmax [3] was 3680 ng/mL, the Tmax [3] was 30 min and the half-life [3] was 162 min.

Molecule Cc1ccc(S(=O)(=O)N=S(C)(=O)NCCNc2nonc2C(=NO)Nc2ccc(F)c(Br)c2)cc1 (centres unmarked) [Example 13, (Z)—N-(3-bromo-4-fluorophenyl)-N′-hydroxy-4-{[2-({S-methyl-N-[(4-methylphenyl)sulfonyl]sulfonimidoyl}amino)ethyl]amino}-1,2,5-oxadiazole-3-carboximidamide] has an IC50 [1] of 64 nM and an IC50 [2] of 47 nM.

C[S@](=O)(CCNc1nonc1/C(=N/O)Nc1ccc(F)c(Br)c1)=NS(=O)(=O)C1CC1 [Example 18-②, (S,Z)—N-(3-bromo-4-fluorophenyl)-4-((2-(N-(cyclopropylsulfonyl)-S-methylsulfonimidoyl)ethyl)amino)-N′-hydroxy-1,2,5-oxadiazole-3-carboximidamide] showed an IC50 [1] of 24 nM, an IC50 [2] of 9 nM and an AUC(0-inf) [3] of 4610 ng·h/mL. For the same molecule, the Cmax [3] was 2020 ng/mL, the Tmax [3] was 30 min and the half-life [3] was 84 min. The “Tumor inhibition rate (%) D12” value [4] was 68.49%.

Molecule O=C(NO)C(=O)NCCNc1nonc1/C(=N/O)Nc1ccc(F)c(Br)c1 [Example 8, (Z)—N^1-(2-((4-(N-(3-bromo-4-fluorophenyl)-N′-hydroxycarbamimidoyl)-1,2,5-oxadiazol-3-yl)amino)ethyl)-N^2-hydroxyoxalamide] has an IC50 [1] of 76 nM and an IC50 [2] of 33 nM.

In the case of CN=S(C)(=O)CCNc1nonc1/C(=N/O)Nc1ccc(F)c(Br)c1 (centres unmarked) [Example 16, (Z)—N-(3-bromo-4-fluorophenyl)-4-((2-(N,S-dimethylsulfonimidoyl)ethyl)amino)-N′-hydroxy-1,2,5-oxadiazole-3-carboximidamide], the IC50 [1] is reported as 66 nM and the IC50 [2] is reported as 19 nM.

With C[S@@](=O)(CCNc1nonc1/C(=N/O)Nc1ccc(F)c(Br)c1)=NS(=O)(=O)C1CC1 [Example 18-①, (R,Z)—N-(3-bromo-4-fluorophenyl)-4-((2-(N-(cyclopropylsulfonyl)-S-methylsulfonimidoyl)ethyl)amino)-N′-hydroxy-1,2,5-oxadiazole-3-carboximidamide] the IC50 [1] was 19 nM, the IC50 [2] was 11 nM and the AUC(0-inf) [3] was 7320 ng·h/mL. It also gave a Cmax [3] of 2770 ng/mL, a Tmax [3] of 30 min and a half-life [3] of 122 min. The “Tumor inhibition rate (%) D12” value [4] was 72.54%.

Work on NS(=O)(=O)NC1CC(Nc2nonc2/C(=N/O)Nc2ccc(F)c(Br)c2)C1 (centres unmarked) [Example 11, (Z)—N-(3-bromo-4-fluorophenyl)-N′-hydroxy-4-((3-(sulfamoylamino)cyclobutyl)amino)-1,2,5-oxadiazole-3-carboximidamide] yielded an IC50 [1] of 42 nM and an IC50 [2] of 38 nM.

For CCS(=O)(CCNc1nonc1/C(=N/O)Nc1ccc(F)c(Br)c1)=NC (centres unmarked) [Example 17, (Z)—N-(3-bromo-4-fluorophenyl)-N′-hydroxy-4-((2-(N-methylethylsulfonimidoyl)ethyl)amino)-1,2,5-oxadiazole-3-carboximidamide], the IC50 [1] was 75 nM and the IC50 [2] was 16 nM.

For NS(=O)(=O)NC1CCC(Nc2nonc2/C(=N/O)Nc2ccc(F)c(Br)c2)CC1 (centres unmarked) [Example 10, (Z)—N-(3-bromo-4-fluorophenyl)-N′-hydroxy-4-((4-(sulfamoylamino)cyclohexyl)amino)-1,2,5-oxadiazole-3-carboximidamide], the IC50 [1] was 19 nM and the IC50 [2] was 37 nM.
